The text below walks through data of US20180163250A1, “Screening Broths Comprising Esculatin Compounds for the Detection of Specific Microorganisms” (Neogen Corporation, priority 2016, published 2018).

What all share (type): cell-based
For assay [1], the system named is Listeria monocytogenes, NCTC5348 and NCTC10527. Nature of the assay: Pre- and post-incubation detection of enzymatic activity in Listeria express broth (LAB589). The protocol: 3,4-cyclohexenoesculatin glucoside, was dissolved at 200 mg/ml in 50:50 mixture of dimethylformamide and water. The mixture was then added to pre-dispensed 10 ml volume samples of Listeria express broth (LAB589 from Lab M limited) as 25 μL additions from the prepared stock solutions. Additional broth samples without added chromogen were prepared and inoculated at the same time as the chromogen containing samples. The stock solution was then stored at −20° C. for 24 hours. A 0.5 Macfarlane standard suspension of Listeria monocytogenes, NCTC5348 and NCTC10527, was prepared from 18-24 hour cultures grown in tryptic soy broth (LAB004 from Lab M Limited) at 37° C. These were diluted so as to inoculate each sample with 100-1000 or 10,000-100,000 cfu. Samples were then incubated at 37° C. for 24 hours. The samples were then observed, and bacterial growth confirmed. 50 μL of a 250/mg/ml stock solution of ferric ammonium citrate was then added to each sample. Samples without 3,4-cyclohexenoesculatin glucoside chromogen were then supplemented with 25 μL additions from the stored 3,4-cyclohexenoesculatin glucoside stock solution and observed at ambient temperature for 30 minutes.

Assay [2] concerns Listeria monocytogenes NCTC 10257. Nature of the assay: Masking of fluorogenic reaction by CHE glucoside and ferric ammonium citrate in broth. The following applies: uv light. The protocol:
4-methylumbelliferyl-β-D glucopyranoside (MC633 from Sigma Aldrich) was dissolved in water at 100 mg/ml and 25 μL of this stock solution added to pre-dispensed 10 mL volumes of Lab589 (Lab M Limited) and Lab049 (Brain heart infusion broth Lab M limited). Listeria monocytogenes NCTC 10257 were prepared from 18-24 hour cultures grown in tryptic soy broth (LAB004 from Lab M Limited) at 37° C. These were diluted so as to inoculate each sample with 100-1000 cfu. Samples were then incubated at 37° C. for 24 hours. Samples were then observed and confirmed for bacterial growth, and further observed under an ultra violet light for fluorescence. The samples were then supplemented with 3,4-cyclohexenoesculatin glucoside (Biosynth C9218), from a 200 mg/ml in 50:50 mixture of dimethylformamide and water. 50 μL of a 250/mg/ml stock solution of ferric ammonium citrate was added to each sample, observing visually for blackening and under ultra violet light for fluorescence masking after 15 minutes incubation at ambient. Table 5 provides that 3,4-cyclohexenoesculatin glucoside can be used as an additional masking reagent to confirm fluorogenic based broth systems.

Assay [3] deals with methicillin resistant staphylococcus aureus strains. Nature of the assay: Growth and initial color change in MRSA screening broth (LAB588) containing the substrate. The following applies: for Initial color change indicating the presence of MRSA: LAB588 broth with cefoxitin, 100-1000 cfu. Here is the method:
(§1) CHE-phosphate, and 3,4-cyclohexenoesculatin diphosphate were dissolved at 200 mg/ml in a 50:50 mixture of dimethylformamide and water. 5-bromo-4-chloroindoxyl phosphate was dissolved at 200 mg/ml in a 50:50 mixture of ethanol and water. The mixtures of compounds were added individually to a MRSA broth (LAB588; Lab M limited) pre-dispensed to 10 ml volumes, after supplementation with cefoxitin selective agent, as 25 μL additions from the prepared stock solutions.
(§2) A 0.5 Macfarlane standard suspension of methicillin resistant staphylococcus aureus strains were prepared from 18-24 h cultures grown in tryptic soy broth (LAB004; Lab M Limited) at 37° C. These were diluted and added to the MRSA broth samples in an amount sufficient to inoculate each sample with 100-1000 colony forming units (cfu). Target concentration was achieved by diluting a culture to a target level and inoculating sets of tubes at different inoculum dilutions so as to achieve the target range. The actual quantity inoculated was confirmed by plating 50 μl of the dilution onto Tryptone soy agar (LAB011) and incubating the plates for 18-24 h at 37° C. and counting the resulting colonies. This information was used to determine which tubes had been inoculated within the target dosing range.
(§3) The broth is designed to selectively indicate a positive presence of MRSA by a yellow color, or a presumptive positive presence of MRSA by an orange color (Table 1). To the CHE-phosphate and 3,4-cyclohexenoesculatin diphosphate was added 50 μL of a 250/mg/ml stock solution of Ferric ammonium citrate and samples were allowed to incubate at ambient temperature for 5 minutes.

Assay [4] relates to phosphatase activity of methicillin resistant staphylococcus aureus. Nature of the assay: Blackening after addition of ferric ammonium citrate (free CHE, phosphatase activity) in MRSA broth. The following applies: for blackening after the addition of ferric ammonium citrate indicating the presence of free 3,4-cyclohexenoesculatin: 5 minutes at ambient temperature after FAC; for Color or masking reaction (blackening reaction, dark precipitate): MRSA broth, after ferric ammonium citrate. The protocol:
as §1, §2, §3

[5] abbreviates: L. monocytogenes NCTC 5348 100 cfu, glucoside added post incubation.
Where [6] appears, read: L. monocytogenes NCTC 5348 100 cfu, glucoside added pre incubation.
Where [7] appears, read: L. monocytogenes NCTC 5348 10000 cfu, glucoside added post incubation.
Where [8] appears, read: L. monocytogenes NCTC 5348 10000 cfu, glucoside added pre incubation.
Setting [9] is: L. monocytogenes NCTC 10527 100 cfu, glucoside added post incubation.
Where [10] appears, read: L. monocytogenes NCTC 10527 100 cfu, glucoside added pre incubation.
[11] abbreviates: L. monocytogenes NCTC 10527 10000 cfu, glucoside added post incubation.
[12] abbreviates: L. monocytogenes NCTC 10527 10000 cfu, glucoside added pre incubation.

The structures appear in SMILES notation. Structures can show the parent of a compound that is named as a salt.

For `O=c1oc2cc(O)c(O[C@@H]3O[C@H](CO)[C@@H](O)[C@H](O)[C@H]3O)cc2c2c1CCCC2` [3,4-cyclohexenoesculatin glucoside], the “Color t = 0 minutes post iron addition” value in assay [1] (setting [5]) was “yellow”; in assay [1] (setting [6]) it was “Black”; in assay [1] (setting [7]), “yellow”; in assay [1] (setting [8]), “Black”; in assay [1] (setting [9]) it was “yellow”; in assay [1] (setting [10]), “Black”. Also, the “Color t = 0 minutes post iron addition” value is “yellow” in assay [1] (setting [11]) and “Black” in assay [1] (setting [12]). Moreover, the “Color t = 15 minutes post iron addition” value in assay [1] (setting [5]), in assay [1] (setting [6]), in assay [1] (setting [7]), in assay [1] (setting [8]), in assay [1] (setting [9]) and in assay [1] (setting [10]) was “Black” each time. In addition, the “Color t = 15 minutes post iron addition” value in assay [1] (setting [11]) and in assay [1] (setting [12]) was “Black” in each case. The “Time to strong black reaction” value in assay [1] (glucoside added post incubation) is on record as “about 15 minutes”. Also, in assay [1] (samples incubated with the glucoside), the “Time to strong black reaction on the addition of ferric ammonium citrate” value was “instantly”.

On to `Cc1cc(=O)oc2cc(O[C@@H]3O[C@H](CO)[C@@H](O)[C@H](O)[C@H]3O)ccc12` [4-methylumbelliferyl-β-D glucopyranoside], for which, in assay [2] (LAB049 broth), the “Appearance T = 15 minutes post iron addition” value was “fluorescent under uv light” and the “Appearance t = 0 minutes post iron addition” value is reported as “fluorescent under uv light”. In addition, in assay [2] (LAb589 broth), the “Appearance T = 15 minutes post iron addition” value is “fluorescent under uv light” and the “Appearance t = 0 minutes post iron addition” value was “fluorescent under uv light”.

Take `O=c1oc2cc(OP(=O)(O)O)c(OP(=O)(O)O)cc2c2c1CCCC2` [Diphosphate, 3,4-cyclohexenoesculatin diphosphate tetra-potassium salt]: the “Initial color change indicating the presence of MRSA” value in assay [3] (MRSA 3), in assay [3] (MRSA 15), in assay [3] (MRSA 15A (clinical isolate)), in assay [3] (MRSA 15B (clinical isolate)), in assay [3] (MRSA 15C (clinical isolate)) and in assay [3] (MRSA 16A (clinical isolate)) was “Growth (yellow)” in each case. The “Initial color change indicating the presence of MRSA” value in assay [3] (MRSA 16B (clinical isolate)), in assay [3] (MRSA 16C (clinical isolate)) and in assay [3] (S. aureus NCTC 12493) was “Growth (yellow)” in each case. Further, the “Inhibition of the growth of MRSA” value in assay [3] (MRSA broth LAB588, summary of Table 1) is recorded as “not inhibitory”. Also, the “blackening after the addition of ferric ammonium citrate indicating the presence of free 3,4-cyclohexenoesculatin” value in assay [4] (MRSA 3), in assay [4] (MRSA 15), in assay [4] (MRSA 15A (clinical isolate)), in assay [4] (MRSA 15B (clinical isolate)), in assay [4] (MRSA 15 C (clinical isolate)) and in assay [4] (MRSA 16A (clinical isolate)) was “No change” each time. The “blackening after the addition of ferric ammonium citrate indicating the presence of free 3,4-cyclohexenoesculatin” value in assay [4] (MRSA 16B (clinical isolate)), in assay [4] (MRSA 16 C (clinical isolate)) and in assay [4] (S. aureus NCTC 12493) was “No change” throughout. In assay [4], the “Color or masking reaction (blackening reaction, dark precipitate)” value is reported as “does not produce the same dark precipitate”.

On to `O=P(O)(O)Oc1c[nH]c2ccc(Br)c(Cl)c12` [Indoxyl phosphate, 5-bromo-4-chloroindoxyl phosphate, reference compound], for which the “Initial color change indicating the presence of MRSA” value in assay [3] (MRSA 3), in assay [3] (MRSA 15), in assay [3] (MRSA 15A (clinical isolate)), in assay [3] (MRSA 15B (clinical isolate)), in assay [3] (MRSA 15C (clinical isolate)) and in assay [3] (MRSA 16A (clinical isolate)) was “Growth (orange)” throughout. Moreover, the “Initial color change indicating the presence of MRSA” value in assay [3] (MRSA 16B (clinical isolate)), in assay [3] (MRSA 16C (clinical isolate)) and in assay [3] (S. aureus NCTC 12493) was “Growth (orange)” each time. The “Color or masking reaction (blackening reaction, dark precipitate)” value in assay [4] is reported as “no detectable color or masking reaction”.
